Tests used:
KCNQ2/3/5 = molecular target: T1, KCNQ2/3/5 (Homo sapiens, UniProt O43525+O43526+Q9NR82); assay: TEVC of KCNQ2/3/5 heteromers expressed in Xenopus laevis oocytes; assay type: cell-based
T1 construct: expressed in transfected cells; host or cells: Xenopus laevis oocytes co-injected with cRNAs (1:1:1 according to the authors' reply)
Description: (§1) We generated cRNA transcripts encoding human KCNQ1, 2, 3, and 5 (wild-type and mutant) by in vitro transcription using the mMessage mMachine kit (Thermo Fisher Scientific, Waltham, MA, USA) according to manufacturer’s instructions, after vector linearization, from cDNA sub-cloned into expression vectors (pTLNx and pXOOM) incorporating Xenopus laevis β-globin 5’ and 3’ UTRs flanking the coding region to enhance translation and cRNA stability. Mutant KCNQ cDNAs were generated by Genscript (Piscataway, NJ, USA) and cRNAs made as above. We injected defolliculated stage V and VI Xenopus laevis oocytes (Xenoocyte, Dexter, MI, USA) with KCNQ cRNAs (2–10 ng) and incubated the oocytes at 16 °C in ND96 oocyte storage solution containing penicillin and streptomycin, with daily washing, for 2–4 days prior to two-electrode voltage-clamp (TEVC) recording.
(§2) We performed TEVC at room temperature using an OC-725C amplifier (Warner Instruments, Hamden, CT, USA) and pClamp10 software (Molecular Devices, Sunnyvale, CA, USA) 2–4 days after cRNA injection. We placed oocytes in a small-volume oocyte bath (Warner) and viewed them with a dissection microscope for cellular electrophysiology. We sourced chemicals from Sigma-Aldrich (St. Louis, MO, USA) and Combi-Blocks (San Diego, CA, USA). We studied effects of Salvia rosmarinus extracts and of compounds, solubilized directly in bath solution (in mM): 96 NaCl, 4 KCl, 1 MgCl2, 1 CaCl2, 10 HEPES (pH 7.6). We introduced extracts or compounds into the oocyte recording bath by gravity perfusion at a constant flow of 1 ml per minute for 3 min prior to recording. Pipettes were of 1-2 MΩ resistance when filled with 3 M KCl. We recorded currents in response to voltage pulses between −120 mV and +40 mV at 10 mV intervals from a holding potential of −80 mV, to yield current-voltage relationships and examine activation kinetics. We analyzed data using Clampfit (Molecular Devices) and Graphpad Prism software (GraphPad, San Diego, CA, USA), stating values as mean ± SEM. We plotted raw or normalized tail currents versus prepulse voltage and fitted with a single Boltzmann function:1 g=(A1−A2)/1+exp[V1/2−V/Vs]y+A2 where g is the normalized tail conductance, A1 is the initial value at -∞, A2 is the final value at +∞, V1/2 is the half-maximal voltage of activation and Vs the slope factor. We fitted activation and deactivation kinetics with single exponential functions.

KCNQ3*-R242A = KCNQ3*-R242A (Homo sapiens, UniProt O43525, A315T/R242A); assay: TEVC of mutant KCNQ3*-R242A in oocytes; assay type: cell-based
Description: as §1, §2

GABAA receptor = system: GABAA receptor; set-up: method as in PMID 1378214; conditions: rat brain membranes in vitro; cited from earlier work
KCNQ5 = KCNQ5 (Homo sapiens, UniProt Q9NR82); assay: TEVC of KCNQ5 homomers expressed in Xenopus laevis oocytes; assay type: cell-based
Description: as §1, §2

KCNQ3*-M240A = KCNQ3*-M240A (Homo sapiens, UniProt O43525, A315T/M240A); assay: TEVC of mutant KCNQ3*-M240A in oocytes; assay type: cell-based; conditions: 100 µM
Description: as §1
as §2, with “We plotted raw or normalized tail currents versus prepulse voltage and fitted with a single Boltzmann function:1 g=(A1−A2)/1+exp[V1/2−V/Vs]y+A2 where g is the normalized tail conductance, A1 is the initial value at -∞, A2 is the final value at +∞, V1/2 is the half-maximal voltage of activation and Vs the slope factor. We fitted activation and deactivation kinetics with single exponential functions.” left out

KCNQ3*-G245A = KCNQ3*-G245A (Homo sapiens, UniProt O43525, A315T/G245A); assay: TEVC of mutant KCNQ3*-G245A in oocytes; assay type: cell-based; conditions: 100 µM
Description: as §1
We performed TEVC at room temperature using an OC-725C amplifier (Warner Instruments, Hamden, CT, USA) and pClamp10 software (Molecular Devices, Sunnyvale, CA, USA) 2–4 days after cRNA injection. […] We recorded currents in response to voltage pulses between −120 mV and +40 mV at 10 mV intervals from a holding potential of −80 mV, to yield current-voltage relationships and examine activation kinetics. We analyzed data using Clampfit (Molecular Devices) and Graphpad Prism software (GraphPad, San Diego, CA, USA), stating values as mean ± SEM. […]

KCNQ2/3 = molecular target: T2, KCNQ2/3 (Homo sapiens, UniProt O43525+O43526); assay: TEVC of KCNQ2/3 heteromers expressed in Xenopus laevis oocytes; assay type: cell-based
T2 construct: expressed in transfected cells; host or cells: Xenopus laevis oocytes co-injected with cRNAs
Description: as §1
as §2, with “We” for “We performed TEVC at room temperature using an OC-725C amplifier (Warner Instruments, Hamden, CT, USA) and pClamp10 software (Molecular Devices, Sunnyvale, CA, USA) 2–4 days after cRNA injection. We”, “We recorded currents in response to voltage pulses between −120 mV and +40 mV at 10 mV intervals from a holding potential of −80 mV, to yield current-voltage relationships and examine activation kinetics.” left out

KCNQ3*-G244A = KCNQ3*-G244A (Homo sapiens, UniProt O43525, A315T/G244A); assay: TEVC of mutant KCNQ3*-G244A in oocytes; assay type: cell-based; conditions: 100 µM
Description: as §1
as §2, with “We plotted raw or normalized tail currents versus prepulse voltage and fitted with a single Boltzmann function:1 g=(A1−A2)/1+exp[V1/2−V/Vs]y+A2 where g is the normalized tail conductance, A1 is the initial value at -∞, A2 is the final value at +∞, V1/2 is the half-maximal voltage of activation and Vs the slope factor. We fitted activation and deactivation kinetics with single exponential functions.” left out

For CC(C)c1cc2c(c(O)c1O)[C@@]1(C(=O)O)CCCC(C)(C)[C@@H]1CC2 [Carnosic acid, carnosic acid], the “V0.5 Normalized tail current” value (KCNQ2/3/5; 0.1 µM) was -43.51 ± 1.17 mV, the “V0.5 Normalized tail current” value (KCNQ2/3/5; 1 µM) was -47.43 ± 0.94 mV and the “V0.5 Normalized tail current” value (KCNQ2/3/5; 3 µM) was -49.89 ± 0.88 mV. The “V0.5 Normalized tail current” value (KCNQ2/3/5; 10 µM) was -52.31 ± 0.77 mV, the “V0.5 Normalized tail current” value (KCNQ2/3/5; 30 µM) was -54.68 ± 0.89 mV and the “V0.5 Normalized tail current” value (KCNQ2/3/5; 100 µM) was -57.42 ± 1.03 mV. It also gave an EC50 (KCNQ2/3/5; EC50 EM) of 3130 ± 440 nM, an EC50 (KCNQ2/3/5; EC50 V0.5 Activation) of 2020 ± 440 nM and an EC50 (KCNQ3*-R242A) of 8.31 ± 0.14 µM. The “V0.5 Normalized tail current” value (KCNQ3*-R242A; 0.1 µM) was -21.11 ± 0.68 mV, the “V0.5 Normalized tail current” value (KCNQ3*-R242A; 1 µM) was -24.52 ± 0.42 mV and the “V0.5 Normalized tail current” value (KCNQ3*-R242A; 3 µM) was -27.59 ± 0.38 mV. The “V0.5 Normalized tail current” value (KCNQ3*-R242A; 10 µM) was -30.42 ± 0.37 mV, the “V0.5 Normalized tail current” value (KCNQ3*-R242A; 30 µM) was -35.30 ± 0.41 mV and the Slope (KCNQ3*-R242A; 100 µM) was 8.88 ± 0.59 mV. The “efficacy in terms of ΔV0.5act versus KCNQ3*” value (KCNQ3*-R242A; dose-response) was “halved”, the “effect on binding of [35S]tert-butylbicyclophosphorothionate” value (GABAA receptor) was “decrease the binding affinity” and the “V0.5 Normalized tail current” value (KCNQ5; 0.1 µM) was -42.57 ± 0.34 mV. The “V0.5 Normalized tail current” value (KCNQ5; 1 µM) was -42.20 ± 0.27 mV, the “V0.5 Normalized tail current” value (KCNQ5; 3 µM) was -42.54 ± 0.31 mV and the “V0.5 Normalized tail current” value (KCNQ5; 10 µM) was -43.64 ± 0.36 mV. The “V0.5 Normalized tail current” value (KCNQ5; 30 µM) was -45.91 ± 0.40 mV, the “V0.5 Normalized tail current” value (KCNQ5; 100 µM) was -50.99 ± 0.49 mV and the “constitutively activated current at −120 mV” value (KCNQ5; 100 µM) was ~ 5%. The EC50 (KCNQ5; EC50 EM) was 43.4 ± 0.28 µM, the EC50 (KCNQ5; EC50 V0.5 Activation) was 231 ± 75 µM and the Slope (KCNQ3*-M240A) was 17.31 ± 1.56 mV. For the same compound, the “V0.5 Normalized tail current” value (KCNQ3*-M240A) was -66.81 ± 1.80 mV, the “constitutive current at −120 mV” value (KCNQ3*-M240A) was 20% and the Slope (KCNQ3*-G245A) was 12.79 ± 4.65 mV. The “V0.5 Normalized tail current” value (KCNQ3*-G245A) was -129.4 ± 1.24 mV, the “V0.5 Normalized tail current” value (KCNQ2/3; 0.1 µM) was -44.63 ± 0.46 mV and the “V0.5 Normalized tail current” value (KCNQ2/3; 1 µM) was -45.44 ± 0.41 mV. For the same compound, the “V0.5 Normalized tail current” value (KCNQ2/3; 3 µM) was -46.40 ± 0.45 mV, the “V0.5 Normalized tail current” value (KCNQ2/3; 10 µM) was -47.94 ± 0.61 mV and the “V0.5 Normalized tail current” value (KCNQ2/3; 30 µM) was -49.09 ± 0.55 mV. For the same compound, the “V0.5 Normalized tail current” value (KCNQ2/3; 100 µM) was -49.95 ± 0.65 mV, the “activity across the concentration range tested” value (KCNQ2/3; 0.1-100 µM) was “only weakly active” and the Slope (KCNQ3*-G244A) was 11.55 ± 1.94 mV. For the same compound, the “V0.5 Normalized tail current” value (KCNQ3*-G244A) was -97.68 ± 3.18 mV and the “carnosic acid effects compared with KCNQ3*” value (KCNQ3*-G244A) was “indistinguishably”.

Reference: article PMC10272180, “Ancient medicinal plant rosemary contains a highly efficacious and isoform-selective KCNQ potassium channel opener” (Communications Biology, 2023)
